Results as given in US20120214784A1, “SPIROPIPERIDINE COMPOUNDS AS ORL-1 RECEPTOR ANTAGONISTS” (ELI LILLY AND COMPANY, priority 2009, published 2012).
pKi: −log10 of the molar value.

Key:
[1] = Rat hepatic microsomal glutathione trapping assay; assay type: in vitro ADME; settings: hepatic microsomal homogenate, glutathione as nucleophile
From the text: Assuming that reactive metabolites may play a role in clinical IDRs, minimizing the potential for oxidative bioactivation has been proposed as a means of improving the overall safety profile of compounds containing structural features associated with such reactivity. (see Baillie, Thomas A., Approaches to the Assessment of Stable and Chemically Reactive Drug Metabolites in Early Clinical Trials, Chemical Research in Toxicology, vol 22(2) 2009.) To this end, representative compounds of the present invention and related compounds are screened using a rat hepatic microsomal trapping assay, using glutathione as an endogenous nucleophile, to understand the potential for oxidative bioactivation of the thienyl moiety. […] Of the compounds tested, those wherein R^2a and R^2b are fluoro are found to not show glutathione conjugate formation.

[2] = system: NIH-Swiss mice; 129S6 wild type and nociceptin/ORL1 receptor knockout mice; assay: Forced-swim test in mice (mFST); assay type: in vivo, mouse
From the text: Forced-Swim Test in Mice (mFST) mFST is an established in vivo assay for antidepressant activity (Li et al. J Pharmacol Exp Ther. 319(1):254-9, 2006.). […] The mFST was used to evaluate potential antidepressant-like activity of novel nociceptin/ORL1 antagonists according to previously published methods (Li et al. J Pharmacol Exp Ther. 319(1):254-9, 2006.). Briefly, male NIH-Swiss mice (Harlan Sprague-Dawley, Indianapolis, Ind.) weighing between 25-30 g are used. Group housed animals are removed from the vivarium to the testing area in their own cages and allowed to adapt to the new environment for at least 1 hour before testing. Alternatively, male 129S6 wild type and nociceptin/ORL1 receptor knockout mice were used to confirm dependence of the response to compound was nociceptin/ORL1 receptor dependent. All compounds are prepared in 20% Captisol, 25 mM phosphate buffer, pH 2.0 on the day of use. Mice are placed in a cylinder (diameter: 10 cm; height: 25 cm) filled with 6 cm of water (22-25° C.) for 6 min. The duration of immobility during the last 4 min. of the 6 min. period of the test was scored. A mouse is recorded as immobile when floating motionless or making only those movements necessary to keep its head above water.

[3] = target: T1, nociceptin/ORL1 receptors (Rattus norvegicus, UniProt P35370); assay: In vivo receptor occupancy (LC/MS/MS, RO Tracer) in hypothalamus; settings: for receptor occupancy at 3 mg/kg: oral 3 mg/kg dose after 6 hr.
T1 construct: rats are sacrificed by cervical dislocation and the hypothalamus is removed; from tissue; host or cells: rat hypothalamus (in vivo occupancy)

[4] = target: T2, cloned human ORL1 receptors (Homo sapiens, UniProt P41146); assay: [3H]-OFQ/nociceptin receptor binding assay
T2 construct: expressed in transfected cells; host or cells: CHO cells (membranes)
Experimental: (§1) Radioligand binding assays are commonly used to determine the affinity (Ki) or potency of a compound to bind to a particular receptor or target protein. A filtration-based [3H]-OFQ/nociceptin receptor binding assay is developed based on previous assay formats (Ardati A, Henningsen R A, Higelin J, Reinscheid R K, Civelli O, Monsma F J Jr. Mol. Pharmacol. 1997 May; 51(5):816-24.) with minor modifications. [3H]-OFQ/nociceptin binding assays are carried out in deep-well 96-well plates. [^3H]OFQ (final assay concentration 0.2 nM) competition studies are carried out with 5-10 μg of membrane protein (isolated from Chinese hamster ovary cells (CHO cells) expressing cloned human ORL1 receptors) in a final assay volume of 0.5 mL of buffer containing 20 mM HEPES, pH 7.4, 5 mM MgCl2, 1 mM EGTA, 100 mM NaCl, 0.1% bovine serum albumin. Samples are incubated for 60 min. at room temperature, which is found to be optimal for competition assays. The assays are terminated by filtration through glass fiber filters (Wallac filtermat A) [pretreated with 0.3% polyethylenimine (Sigma) for 1 hr] on a Tometc cell harvester, and the filters are washed three times with 5 mL of ice-cold 50 mM Tris.HCl, pH 7.4. Filtermats are then dried and imbedded with Meltilex scintillant A and the radioactivity counted in a Wallac Microbeta scintillation counter. Specific binding is determined by displacement with 100 nM unlabeled nociceptin. Curves are plotted as the percent of specific binding and IC50 values are determined using a sigmoidal dose response curve with variable slope. K, values are calculated from the IC50 by the equation of Cheng and Prusoff (Cheng, Y. C., and Prusoff, W. H., Biochem. Pharmacol. 22, 3099-3108 (1973)) where Ki=IC50×(1+D×Kd^−1)^−1. Similarly, Ki for the mu, kappa and delta opioids, serotonin, adrenergic, and muscarinic receptors may be determined using membranes expressing the desired receptor and appropriate corresponding radioligand competitor molecules.

Delta Opioid = Delta Opioid (Homo sapiens, UniProt P41143); assay: Radioligand binding selectivity; settings: Delta Opioid; read-out: Ki
Experimental: as §1

Kappa Opioid = Kappa Opioid (Homo sapiens, UniProt P41145); assay: Radioligand binding selectivity; settings: Kappa Opioid; read-out: Ki
Experimental: as §1

Mu Opioid = Mu Opioid (Homo sapiens, UniProt P35372); assay: Radioligand binding selectivity; settings: Mu Opioid; read-out: Ki
Experimental: as §1

[5] = target: T3, cloned human ORL1/nociceptin receptors (Homo sapiens, UniProt P41146); assay: Functional blockade of agonist-mediated G-protein activation, GTP-γ-[35S] binding; assay type: biochemical
T3 construct: expressed in transfected cells
From the text: Agonist-mediated stimulation of G-protein coupled receptors results in the activation of membrane associated Gαβγ-protein heterotrimer complexes, and represents the first step in the transduction of extracellular signals to modification of intracellular pathways. The first step in activation of receptor-mediated activation of Gαβγ-proteins heterotrimer is the exchange of Gα subunit bound guanosine diphoshpate (GDP) for guanosine triphosphate (GTP). The binding of GTP to the Gα subunit causes dissociation of the heterotrimer subunits, Gβ and Gγ, resulting in the modulation of several intracellular signaling cascades. Measurement of receptor-mediated G-protein activation can be measured using the non-hydrolyzable radiolabeled analog of GTP, GTP-γ-[35S]. Utilizing this methodology, antagonist affinity (Kb) is measured in membranes expressing cloned human ORL1/nociceptin receptors using a GTP-γ-[35S] binding assay according to previously described protocols with minor modifications (DeLapp et al., J Pharmacol Exp Ther. 1999 May; 289(2):946-55; Ozaki et al., Eur J Pharmacol. 2000 Aug. 18; 402(1-2):45-53). Assays are conducted in a 200-μl volume with the following buffer composition: 100 mM NaCl, 20 mM HEPES, 5 mM MgCl2, 1 mM EDTA, 0.1% BSA, 3 μM GDP, 0.5 nM [^35S]GTPγS. ORL1 receptor membrane suspension is added at a concentration of 20 μg protein per well and receptor stimulation is achieved using 300 nM nociceptin/OFQ. Wheat germ agglutinin coated SPA beads (Amersham, Arlington Hts., Ill.) are added at 1 mg per well to detect membrane-bound [^35S]GTPγS. Plates are sealed and incubated for 2 hr. at room temperature. Plates are then placed at 4° C. overnight to allow the SPA beads to settle and then counted in a Wallac Microbeta. Specific [^35S]GTPγS binding is determined as the difference in CPM observed in the absence and presence of 10 μM unlabeled GTPγS. Data are plotted as the percent of specific [^35S]GTPγS bound. Curves are plotted as the percent of specific binding and IC50 values are determined using a sigmoidal dose response curve with variable slope. Antagonist affinity (Kb) is estimated according to DeLapp et al., 1999 using a modification of the equation of Cheng and Prusoff (1973) where Kb=IC50×(1+D×EC50^−1)^−1.

[6] = target: human ERG (hERG) K+ channel (Homo sapiens, UniProt Q12809); assay: hERG channel [3H]astemizole binding assay
Experimental: Blockade of K^+-channel conductance in the heart is associated with cardiotoxicity in the form of QT-wave prolongation. The affinity (Ki) of the exemplified nociceptin receptor antagonists for the human ERG (hERG) K^+ channel is determined in HEK293 cells expressing cloned hERG using the hERG channel antagonist radioligand [3H]astemizole (2 nM final assay concentration) according to well known procedures (see for example Finlayson K, et al. (Eur J Pharmacol. 412(3):203-12, 2001) [3H]Astemizole binding assays are performed at the contract research company Cerep (Paris France) according to standard procedures.

[7] = system: wild type and ORL knockout mice; assay: Blockade of fasting-induced hyperphagia in mice; assay type: in vivo, mouse
From the text: Blockade of fasting-induced hyperphagia in rats is an accepted model for hyperphagic eating disorders. […] Mice are individually housed a minimum of 3 days prior to the onset of testing to eliminate any effects of stress due to the change from group to individual housing. Three mice/genotype are randomly assigned to each treatment group on the test day. Pre-fast body weight measurements are taken, and food is then removed from cages overnight. Mice are fasted for approximately 15 hr. The next morning, the mice are given one of three doses of drug or vehicle via oral gavage 30 min. prior to gaining access to food. Drugs are dissolved in 20% Captisol dissolved in 25 mM phosphate buffer, pH 2.0. Measurements of body weight are taken immediately prior to drug treatment or 24 hr. after access to food is restored. […] Measurements of food intake are recorded 1 hr following access to food, as indicated, by weight of food remaining at 1 hr. It should be noted that food intake measured is during the light phase, a time during which mice are typically at rest and not normally eating. Following initial testing, mice are rested for 1 week with access to unlimited chow.

[8] = wild type mice, oral gavage 30 min. prior to food, food intake 1 hr

T1 sequence (P35370 whole entry): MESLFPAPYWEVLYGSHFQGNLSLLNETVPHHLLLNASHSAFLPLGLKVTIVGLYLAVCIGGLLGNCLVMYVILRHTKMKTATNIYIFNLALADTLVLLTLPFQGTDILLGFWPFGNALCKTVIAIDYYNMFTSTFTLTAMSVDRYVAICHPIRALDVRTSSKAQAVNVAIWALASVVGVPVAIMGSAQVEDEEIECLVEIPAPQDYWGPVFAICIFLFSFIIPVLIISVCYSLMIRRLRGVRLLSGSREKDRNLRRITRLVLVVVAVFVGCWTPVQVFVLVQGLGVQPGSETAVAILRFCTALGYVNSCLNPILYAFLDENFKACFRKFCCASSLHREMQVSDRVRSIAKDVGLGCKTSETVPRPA
T2 sequence (P41146 whole entry): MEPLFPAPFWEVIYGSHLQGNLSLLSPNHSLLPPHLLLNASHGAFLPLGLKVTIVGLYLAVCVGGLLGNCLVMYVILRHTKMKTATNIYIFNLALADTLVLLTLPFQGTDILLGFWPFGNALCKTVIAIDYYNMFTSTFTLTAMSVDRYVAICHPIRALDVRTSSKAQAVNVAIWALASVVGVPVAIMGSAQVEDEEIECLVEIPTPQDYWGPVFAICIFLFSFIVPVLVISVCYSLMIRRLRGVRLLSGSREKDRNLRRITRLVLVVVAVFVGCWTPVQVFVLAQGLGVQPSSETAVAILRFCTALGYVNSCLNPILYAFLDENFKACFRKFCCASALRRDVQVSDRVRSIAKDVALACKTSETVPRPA
T3 sequence (P41146 whole entry): as above
Kappa Opioid, sequence (P41145 whole entry): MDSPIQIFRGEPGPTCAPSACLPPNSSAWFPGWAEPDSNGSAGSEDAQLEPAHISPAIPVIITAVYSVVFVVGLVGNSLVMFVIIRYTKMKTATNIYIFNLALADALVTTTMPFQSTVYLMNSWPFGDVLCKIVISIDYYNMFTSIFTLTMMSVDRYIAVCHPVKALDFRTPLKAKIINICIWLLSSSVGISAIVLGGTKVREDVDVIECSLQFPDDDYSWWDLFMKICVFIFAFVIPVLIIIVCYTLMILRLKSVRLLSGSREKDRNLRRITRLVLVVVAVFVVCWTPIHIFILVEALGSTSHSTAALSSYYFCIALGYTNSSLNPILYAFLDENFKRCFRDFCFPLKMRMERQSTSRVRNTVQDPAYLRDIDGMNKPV
human ERG (hERG) K+ channel, sequence (Q12809 whole entry): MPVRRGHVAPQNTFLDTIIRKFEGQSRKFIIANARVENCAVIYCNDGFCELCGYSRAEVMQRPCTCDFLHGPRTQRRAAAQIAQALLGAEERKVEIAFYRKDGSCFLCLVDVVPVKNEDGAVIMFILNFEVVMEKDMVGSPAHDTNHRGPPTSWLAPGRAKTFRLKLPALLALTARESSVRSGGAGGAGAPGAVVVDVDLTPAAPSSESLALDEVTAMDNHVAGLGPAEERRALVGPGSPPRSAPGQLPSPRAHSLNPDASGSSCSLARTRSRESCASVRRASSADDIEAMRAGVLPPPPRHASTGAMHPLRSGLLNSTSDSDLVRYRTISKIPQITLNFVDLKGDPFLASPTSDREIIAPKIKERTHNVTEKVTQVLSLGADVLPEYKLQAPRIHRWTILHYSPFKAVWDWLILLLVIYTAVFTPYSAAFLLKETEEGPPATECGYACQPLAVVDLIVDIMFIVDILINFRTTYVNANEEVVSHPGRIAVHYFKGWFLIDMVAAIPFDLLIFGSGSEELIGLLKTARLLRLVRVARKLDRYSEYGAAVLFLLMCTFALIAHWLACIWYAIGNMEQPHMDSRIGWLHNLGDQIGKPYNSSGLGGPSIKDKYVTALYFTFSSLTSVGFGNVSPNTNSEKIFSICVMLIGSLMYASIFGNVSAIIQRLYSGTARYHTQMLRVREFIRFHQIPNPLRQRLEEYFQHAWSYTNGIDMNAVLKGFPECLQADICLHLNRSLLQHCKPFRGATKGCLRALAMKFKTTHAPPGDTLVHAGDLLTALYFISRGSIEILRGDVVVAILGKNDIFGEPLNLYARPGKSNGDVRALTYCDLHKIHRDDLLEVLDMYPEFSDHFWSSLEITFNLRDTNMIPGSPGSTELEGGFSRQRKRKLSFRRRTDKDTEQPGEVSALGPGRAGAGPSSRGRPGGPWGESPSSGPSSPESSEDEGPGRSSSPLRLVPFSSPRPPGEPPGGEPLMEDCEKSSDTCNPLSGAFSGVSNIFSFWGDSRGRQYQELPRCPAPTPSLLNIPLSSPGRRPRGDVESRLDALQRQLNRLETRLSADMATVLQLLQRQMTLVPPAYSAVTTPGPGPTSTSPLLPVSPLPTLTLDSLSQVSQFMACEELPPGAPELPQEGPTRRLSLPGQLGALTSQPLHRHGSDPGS
Mu Opioid, sequence (P35372 whole entry): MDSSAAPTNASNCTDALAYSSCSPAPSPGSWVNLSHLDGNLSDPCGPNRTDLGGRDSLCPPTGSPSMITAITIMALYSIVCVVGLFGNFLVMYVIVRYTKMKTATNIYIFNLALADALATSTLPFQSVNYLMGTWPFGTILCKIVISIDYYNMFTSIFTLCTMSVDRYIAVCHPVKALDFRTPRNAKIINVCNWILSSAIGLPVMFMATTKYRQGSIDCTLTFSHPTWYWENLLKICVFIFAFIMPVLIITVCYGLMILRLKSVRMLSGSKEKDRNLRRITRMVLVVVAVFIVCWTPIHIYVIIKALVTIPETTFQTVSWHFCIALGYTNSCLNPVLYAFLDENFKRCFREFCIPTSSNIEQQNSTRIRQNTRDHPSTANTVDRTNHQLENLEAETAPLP
Delta Opioid, sequence (P41143 whole entry): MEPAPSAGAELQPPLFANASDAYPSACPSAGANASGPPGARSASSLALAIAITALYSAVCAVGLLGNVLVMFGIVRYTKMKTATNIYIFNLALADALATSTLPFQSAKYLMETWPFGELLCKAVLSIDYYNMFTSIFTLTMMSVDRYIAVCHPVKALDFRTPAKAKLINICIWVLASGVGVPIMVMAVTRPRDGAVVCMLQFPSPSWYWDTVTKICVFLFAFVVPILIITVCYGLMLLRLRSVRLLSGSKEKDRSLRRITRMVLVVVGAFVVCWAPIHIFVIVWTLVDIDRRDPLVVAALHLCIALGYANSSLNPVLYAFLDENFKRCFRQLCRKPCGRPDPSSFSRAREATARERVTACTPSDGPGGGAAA

## Cc1nn(-c2c(F)cccc2C(N)=O)cc1CN1CCC2(CC1)OCCc1c2sc(F)c1F.O=C(O)C(O)C(O)C(=O)O [3-fluoro-2-[4-[(2,3-difluorospiro[4,5-dihydrothieno[2,3-c]pyran-7,4′-piperidine]-1′-yl)methyl]-3-methyl-pyrazol-1-yl]benzamide (L) Tartrate, reference compound]
[1]
  Glutathione conjugate formation: Yes

## CN(C)CCCN1c2ccccc2CCc2ccccc21 [imiprimine, reference compound]
[2]; ORL-1 knockout mice
  immobilization time: reduce immobilization times
[2]; wild type mice
  immobilization time: reduce immobilization times

## Cc1cccc2c1CC[C@@H](CN1CCC(c3c(Cl)cccc3Cl)CC1)C[C@H]2O [SB612111, (−)-cis-1-methyl-7-[[4-(2,6-dichlorophenyl)piperidin-1-yl]methyl]-6,7,8,9-tetrahydro-5H-benzocyclohepten-5-ol, reference compound]
[3]; iv, intravenously 30 mg/kg 1 hr. prior to RO Tracer, positive control
  receptor occupancy at 30 mg/kg: ~100%

## CC(=O)c1cccc(F)c1-n1cc(CN2CCC3(CC2)OCC(F)(F)c2cc(Cl)sc23)c(C)n1 [Example 40, 1-(2-(4-((2′-Chloro-4′,4′-difluoro-4′,5′-dihydrospiro[piperidine-4,7′-thieno[2,3-c]pyran]-1-yl)methyl)-3-methyl-1H-pyrazol-1-yl)-3-fluorophenyl)ethanone]
[4]
  pKi: 9.60
Delta Opioid
  pKi: < 6.32
Kappa Opioid
  pKi: < 6.37
Mu Opioid
  pKi: < 6.35
[5]
  Kb: 0.3 nM
[3]
  receptor occupancy at 3 mg/kg: 70%
[6]
  pKi: 5.97
[2]; mFST
  maximum effect, reduction in immobilization time: 50%
[2]; mFST, immobility time
  ED60: 23 nM
[7]; [8]
  fasting-induced hyperphagia: substantially block fasting-induced hyperphagia

## Cc1nn(-c2c(F)cccc2C(N)=O)cc1CN1CCC2(CC1)OCCc1cc(F)sc12.O=C(O)C(O)C(O)C(=O)O [Example 9, 3-fluoro-2-[4-[(2-fluorospiro[4,5-dihydrothieno[2,3-c]pyran-7,4′-piperidine]-1′-yl)methyl]-3-methyl-pyrazol-1-yl]benzamide (L)-Tartrate]
[1]
  Glutathione conjugate formation: Yes

## Cc1nn(-c2c(F)cccc2C(N)=O)cc1CN1CCC2(CC1)OCC(F)(F)c1cc(F)sc12.O=C(O)C(O)C(O)C(=O)O [Example 18, 3-fluoro-2-[3-methyl-4-[(2,4,4-trifluorospiro[5H-thieno[2,3-c]pyran-7,4′-piperidine]-1′-yl)methyl]pyrazol-1-yl]benzamide (L)-Tartrate]
[1]
  Glutathione conjugate formation: No

## Cc1nn(-c2c(F)cccc2-n2ccnc2C)cc1CN1CCC2(CC1)OCC(F)(F)c1cc(Cl)sc12.O=C(O)C(O)C(O)C(=O)O [Example 47, 2-Chloro-4,4-difluoro-1′-[[1-[2-fluoro-6-(2-methylimidazol-1-yl)phenyl]-3-methyl-pyrazol-4-yl]methyl]spiro[5H-thieno[2,3-c]pyran-7,4′-piperidine] (L)-Tartrate]
[4]
  pKi: 9.59
[5]
  Kb: 0.15 nM
[3]
  receptor occupancy at 3 mg/kg: 84%
[7]; [8]
  fasting-induced hyperphagia: substantially block fasting-induced hyperphagia

## Clc1cccc(N2CCNCC2)c1 [mCPP, meta-chlorophenylpiperazine, reference compound]
[7]; ORL-1 knockout mouse strain
  fasting-induced hyperphagia: significantly reduce fasting induced hyperphagia
[7]; [8]
  fasting-induced hyperphagia: significantly reduce fasting induced hyperphagia

## Cc1nn(-c2c(F)cccc2CO)cc1CN1CCC2(CC1)OCC(F)(F)c1cc(Cl)sc12.O=C(O)C(O)C(O)C(=O)O [Example 1, [2-[4-[(2-Chloro-4,4-difluoro-spiro[5H-thieno[2,3-c]pyran-7,4′-piperidine]-1′-yl)methyl]-3-methyl-pyrazol-1-yl]-3-fluoro-phenyl]methanol (L)-Tartrate]
[7]; [8]
  fasting-induced hyperphagia: substantially block fasting-induced hyperphagia
